# Measurements published in patent US7622469B2, “2,4-diamino-1,3,5-triazine derivatives” (Hamari Chemicals, Ltd., priority 2002, dated 2009).
# Key:
# Test in all cases: Antibacterial activity test (MIC)
# Details in all cases: Mueller-Hinton Broth, 37° C., 20 to 24 hours
# [1] = tested on: MRSA 97-115; format: cell-based, methicillin-resistant Staphylococcus aureus
# Procedure: (§1) Regarding compounds obtained in respective Working Examples, in order to investigate antibacterial activity, minimal inhibitory concentration (MIC) was determined according to a standard method of Japanese Society of Chemotherapy.
# (§2) As a test bacterium, nine kinds of S. aureus 209PJC, MRSA 97-115, MRSA KM 97-53, MRSA KM97-108, VRE 49, E. coli NIHJ JC-2, P. aeruginosa PAO-1, P. aeruginosa No. 12, P. aeruginosa KM97-5 were used and, as a medium, Mueller-Hinton Broth (DIFCO) was used. One platinum loop of a test bacterium was inoculated into 20 ml of a medium, and static culture was carried out at 37° C. for 16 to 20 hours, and then each bacterium species was diluted with a sterilized physiological saline to 10^5/ml, which was used as a test bacterium solution.
# (§3) Then, each compound was dissolved in methanol, subjected to ½ stepwise dilution with a medium to prepare a medium for measuring sensitivity, and each 2 ml was dispensed into a test tube. A compound concentration in a medium was adjusted to 100 μg/ml and its 2^n-fold (n=−10 to 1).
# (§4) Numerical values in Tables represent MIC expressed in μg/ml unit.
# [2] = tested on: E. coli NIHJ JC-2; format: cell-based
# Procedure: as §1, §2, §3, §4
# [3] = tested on: S. aureus 209PJC; format: cell-based
# Procedure: as §1, §2, §3, §4
# [4] = tested on: P. aeruginosa PAO-1; format: cell-based
# Procedure: as §1, §2, §3, §4
SMILES,minimal inhibitory concentration (MIC) [1],minimal inhibitory concentration (MIC) [2],minimal inhibitory concentration (MIC) [3],minimal inhibitory concentration (MIC) [4]
CCCCCCCCCCCCC1N=C(N)N=C(N)N1CCc1ccc(OC)cc1.Cl (racemic) [15(2)],1.6 µg/mL,50 µg/mL,0.4 µg/mL,50 µg/mL
CCCCCCCCCCCCC1N=C(N)NC(NCc2ccc(OC)cc2)=N1.Cl (racemic) [16(1)],1.6 µg/mL,25 µg/mL,0.4 µg/mL,50 µg/mL
CCCCCCCCCCCCC1N=C(N)N=C(N)N1Cc1ccc(OC)cc1.Cl (racemic) [16(2)],1.6 µg/mL,25 µg/mL,0.4 µg/mL,25 µg/mL
CCCCCCCCCCC1N=C(N)NC(NCc2ccc(C(F)(F)F)cc2)=N1.Cl (racemic) [18(1)],0.8 µg/mL,6.3 µg/mL,0.4 µg/mL,25 µg/mL
CCCCCCCCCCC1N=C(N)N=C(N)N1Cc1ccc(C(F)(F)F)cc1.Cl (racemic) [18(2)],1.6 µg/mL,6.3 µg/mL,0.8 µg/mL,12.5 µg/mL
CCCCCCCCCCCC1N=C(N)N=C(N)N1c1ccc(F)cc1F.Cl (racemic) [compound 35],3.1 µg/mL,25 µg/mL,0.8 µg/mL,25 µg/mL
CCCCCCCCCCCC1N=C(N)NC(Nc2ccc(F)cc2F)=N1.Cl (racemic) [compound 36],1.6 µg/mL,>100 µg/mL,0.8 µg/mL,>100 µg/mL
CCCCCCCCCCCCC1N=C(N)NC(NCc2ccccc2)=N1.Cl (racemic) [compound 44],0.8 µg/mL,1.6 µg/mL,0.2 µg/mL,12.5 µg/mL
CCCCCCCCCCCC1(C)N=C(N)N=C(N)N1c1ccc(Cl)cc1.Cl (racemic) [compound 45],0.4 µg/mL,>100 µg/mL,0.4 µg/mL,>100 µg/mL
CCCCCCCCCCCC1(C)N=C(N)NC(NCc2ccccc2)=N1.Cl (racemic) [compound 46],0.4 µg/mL,12.5 µg/mL,0.4 µg/mL,25 µg/mL
CCCCCCCCNC1=NC(C)(C)N=C(NCc2ccc(Cl)c(Cl)c2)N1.Cl [12(1)],0.8 µg/mL,25 µg/mL,0.4 µg/mL,25 µg/mL
CCCCCCCCNC1=NC(C)(C)N(Cc2ccc(Cl)c(Cl)c2)C(N)=N1.Cl [12(2)],1.6 µg/mL,50 µg/mL,0.8 µg/mL,50 µg/mL
CCCCCCCCCCNC1=NC(C)(C)N=C(NCc2ccccc2)N1.O=C(O)CC(=O)O [41(2)],0.8 µg/mL,6.3 µg/mL,0.4 µg/mL,12.5 µg/mL
CCCCCCCCCCNC1=NC(C)(C)N=C(NCc2ccc(OC)cc2)N1.Cl [Example 1],0.4 µg/mL,12.5 µg/mL,0.4 µg/mL,25 µg/mL
CCCCCCCCCCNC1=NC(C)(C)N=C(NCc2ccc(OC)c(OC)c2)N1.Cl [compound 3],1.6 µg/mL,25 µg/mL,1.6 µg/mL,
CCCCCCCCCNC1=NC(C)(C)N=C(NCCc2ccc(OC)cc2)N1.Cl [compound 5],0.9 µg/mL,,0.5 µg/mL,
CCCCCCCCCCCNC1=NC(C)(C)N=C(NCCc2ccc(OC)cc2)N1.Cl [compound 6],1.8 µg/mL,57 µg/mL,0.9 µg/mL,114 µg/mL
CCCCCCCCCCNC1=NC(C)(C)N=C(NCc2ccc(O)cc2)N1.Cl [compound 7],0.8 µg/mL,12.5 µg/mL,0.2 µg/mL,50 µg/mL
CCCCCCCCNC1=NC(C)(C)N=C(NCc2ccc(O)cc2)N1.Cl [compound 8],3.1 µg/mL,25 µg/mL,0.4 µg/mL,>100 µg/mL
CCCCCCCCCCCNC1=NC(C)(C)N=C(NCc2ccc(O)cc2)N1.Cl [compound 9],1.6 µg/mL,100 µg/mL,0.4 µg/mL,>100 µg/mL
CCCCCCCCCCNC1=NCN=C(NCCc2ccc(OC)cc2)N1.Cl [compound 10],6.4 µg/mL,,0.4 µg/mL,26 µg/mL
CCCCCCCCCCNC1=NC(C)(C)N(c2ccc(OC)cc2)C(N)=N1.Cl [compound 14],3.1 µg/mL,50 µg/mL,3.1 µg/mL,100 µg/mL
CCCCCCCCC1N=C(N)NC(NCc2ccc(C(F)(F)F)cc2)=N1.Cl (stereo not drawn) [compound 17],1.6 µg/mL,12.5 µg/mL,0.8 µg/mL,25 µg/mL
CCCCCCCCCCCC1N=C(N)NC(NCc2ccc(C(F)(F)F)cc2)=N1.Cl (stereo not drawn) [compound 19],3.1 µg/mL,50 µg/mL,0.4 µg/mL,100 µg/mL
CCCCCCCC1N=C(N)N=C(N)N1c1ccc(C(C)(C)C)cc1.Cl (stereo not drawn) [compound 20],3.1 µg/mL,50 µg/mL,3.1 µg/mL,50 µg/mL
CCCCCCCCC1N=C(N)N=C(N)N1c1ccc(C(C)(C)C)cc1.Cl (stereo not drawn) [compound 21],3.1 µg/mL,25 µg/mL,1.5 µg/mL,50 µg/mL
CCCCCCCCC1N=C(N)NC(Nc2cc(C(C)(C)C)ccc2OC)=N1 (stereo not drawn) [compound 25],1.6 µg/mL,,1.6 µg/mL,
CC(=O)O.CCCCCCCCCCNC1=NC(C)(C)N=C(NCc2ccccc2)N1 [compound 50],0.4 µg/mL,,0.4 µg/mL,25 µg/mL
